Patent publication US20230404969A1, “COMPOSITIONS AND METHOD FOR EFFECTIVE MANAGEMENT OF PERITONITIS” (priority 2022, published 2023)

System: IL-12p70
Assay: Cytometric Bead Array of peritoneal fluid, chronic zymosan peritonitis: IL-12
Format: in vivo, mouse
Settings: 2 mg/kg, vs Zymosan control
Protocol: Peritoneal inflammation was induced by Zymosan A (Sigma Chemical) (Masashi et al. Zymosan, but Not Lipopolysaccharide, Triggers Severe and Progressive Peritoneal Injury Accompanied by complement Activation in a Rat Peritonitis Model) was prepared freshly in sterile, 0.9% w/v saline, and 0.5 ml was injected i.p. from day 0 to Day 5. The lymphocyte population in the peripheral blood was determined with a flow cytometer. Cells were phenotyped by flow cytometry with the following primary antibodies: CD4 (FITC) and CD8 (PE). Cells were gated broadly on all live lymphocyte cells, with only debris and multiple cell clusters being excluded. Analysis of mean fluorescence intensity was done and percentage cell population was evaluated. […]
The Cytometric Bead Array (Mouse Inflammation kit) was used to study cytokines in peritoneal fluid. […] Briefly, a mixture of 6 capture bead populations (50 μl) with distinct fluorescence intensities (detected in FL3) coated with antibodies specific for the above cytokines was mixed with each sample/standard (50 μl). […] Following acquisition of data by two colour cytometric analysis, the sample results were analysed using CBA software (BD Biosciences). […] Individual cytokine concentration ratios were indicated by their fluorescent intensities and was determined by interpolation from the corresponding standard curve.

CC1=C(C)C(=O)O[C@@H]([C@@H](C)[C@@]2(O)CC[C@H]3[C@@H]4[C@@H]5O[C@@H]5[C@@]5(O)CC=CC(=O)[C@]5(C)[C@H]4CC[C@@]32C)C1 [Withanone]
Inhibition of IL-12: 53%
